One experiment addresses T1, Thermotoga-derived TyrRS (Thermotoga maritima, UniProt Q9WYU8).
T1 construct: The amplification products were each inserted into pET-28a to obtain plasmids for expression of respective AARSs; His tag (N); made in house; host or cells: Escherichia coli BL21 (DE3)
T1 sequence (Q9WYU8 1-401): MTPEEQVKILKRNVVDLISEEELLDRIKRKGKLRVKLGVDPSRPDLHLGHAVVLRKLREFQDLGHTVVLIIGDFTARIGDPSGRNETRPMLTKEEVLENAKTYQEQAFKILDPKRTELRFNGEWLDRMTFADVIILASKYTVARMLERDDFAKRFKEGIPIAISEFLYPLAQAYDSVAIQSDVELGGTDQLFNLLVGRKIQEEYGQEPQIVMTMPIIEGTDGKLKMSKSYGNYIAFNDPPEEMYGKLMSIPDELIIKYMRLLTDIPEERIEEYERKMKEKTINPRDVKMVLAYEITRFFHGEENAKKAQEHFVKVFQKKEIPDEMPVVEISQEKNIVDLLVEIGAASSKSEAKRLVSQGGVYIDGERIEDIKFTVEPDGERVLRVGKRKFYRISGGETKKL
Briefly: Calibration curve for amino acid by coupled PPDK and LDH. The format is biochemical, Thermotoga maritima MSB8 strain. The note with it: Tyr 0 to 200 μM; hydroxylamine 200 mM; TyrRS 0.4 mg/ml (40 mU/ml); 30° C. As to the method:
(§1) A test sample containing an amino acid as the measurement subject and a reaction mixture for quantifying amino acid having the following composition were mixed. The mixture was left standing at 30° C. to allow the AARS, PPDK, and LDH reactions to advance, and decrease of the absorbance at 340 nm was measured. The volume of the mixture was 200 μl, and after the reaction mixture was put into the wells of a 96-well microplate, the absorbance was measured with a microplate reader.
(§2) Reaction mixture for quantifying amino acid: 20 mM Tris-HCl (pH 7.0), 10 mM MgCl2, 10 mM NH4Cl, 0.3 mM PEP, 0.3 mM NADH, 0.2 mM ATP, 0.2 mM AMP, 70 mU/ml PPDK, 50 U/ml LDH, and AARS (concentrations are final concentrations obtained after mixing with test sample)
(§3) Calibration curves were prepared by using the AARS activity measurement method described in 8. and standard Cys, Lys, Ser, and Tyr solutions as test samples. The concentrations of the aforementioned amino acids were set so that the final concentrations thereof are in the range of 0 to 200 μM. The hydroxylamine concentration was 200 mM for the samples used for the Tyr calibration curve, or 1000 mM for the samples used for the Cys, Lys, and Ser calibration curves. The Thermotoga-derived CysRS, LysRS, SerRS, TyrRS, and the Thermus-derived TyrRS were added to the reaction mixture at final concentrations of 0.2 (7 mU/ml), 0.1 (10 mU/ml), 0.2 (8 mU/ml), 0.4 (40 mU/ml), and 0.1 mg/ml, respectively.
(§4) Calibration curves could be similarly prepared when adding pyrophosphate instead of the aforementioned amino acids, but the inclinations of the Lys, Ser, and Tyr calibration curves (absorbance change per mM of substrate) were 80% or more of the inclination of the pyrophosphate calibration curve. […] The inclination of the Cys calibration curve was slightly smaller than those of the other calibration curves, and it is considered that this is because a part of cysteine in the test sample was converted into cystine by air oxidation, and the real concentration of cysteine was reduced.

In a further experiment the target is T2, Thermotoga-derived SerRS (Thermotoga maritima, UniProt Q9X199).
T2 construct: His tag (C); made in house; host or cells: Escherichia coli BL21 (DE3)
Described as above. Type of experiment: biochemical, Thermotoga maritima MSB8 strain. The note with it: Ser 0 to 200 μM; hydroxylamine 1000 mM; SerRS 0.2 mg/ml (8 mU/ml); 30° C. As to the method: as §1, §2, §3, §4

T2 sequence (Q9X199 whole entry): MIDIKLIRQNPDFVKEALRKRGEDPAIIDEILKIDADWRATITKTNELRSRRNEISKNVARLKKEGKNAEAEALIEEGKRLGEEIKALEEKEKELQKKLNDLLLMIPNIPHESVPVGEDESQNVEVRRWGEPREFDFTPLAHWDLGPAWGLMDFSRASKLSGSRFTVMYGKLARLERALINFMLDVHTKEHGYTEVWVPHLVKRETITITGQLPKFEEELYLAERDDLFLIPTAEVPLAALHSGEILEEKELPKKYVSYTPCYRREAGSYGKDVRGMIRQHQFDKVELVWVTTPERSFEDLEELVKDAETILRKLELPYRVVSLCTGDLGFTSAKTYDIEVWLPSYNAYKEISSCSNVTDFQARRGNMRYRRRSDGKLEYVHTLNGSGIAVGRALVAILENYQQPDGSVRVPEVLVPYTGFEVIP

Regarding `N[C@@H](Cc1ccc(O)cc1)C(=O)O` [Tyr, L-tyrosine], the “inclination of calibration curve relative to inclination of the pyrophosphate calibration curve” value at Thermotoga-derived TyrRS is at least 80%.

Regarding `N[C@@H](CO)C(=O)O` [Ser, L-serine], on Thermotoga-derived SerRS, the “inclination of calibration curve relative to inclination of the pyrophosphate calibration curve” value was at least 80%.
